Tests used:
S. marcescens = assay: ESBL NDP test using cultured strains; format: biochemical, Serratia marcescens; parameters: key: (+) and (−) referred to color change being, red to yellow or unchanged, respectively; (+) and (−) referred to color change being, red to yellow or unchanged, respectively
Description: (§1) Strains were isolated on Mueller-Hinton agar (Biorad, Marnes-la-Coquette, France) and incubated at 37° C. for 16 h to 24 h before performing the NDP rapid ESBL test as follows. One calibrated inoculated loop (10 μl) of the tested strain was resuspended in 150 μl of 20 mM Tris-HCl lysis buffer previously distributed in Microbead tubes (Ultraclean Microbial DNA isolation kit Bead Tubes, MO BIO Laboratories, Carlsbad, USA). Mechanical lysis of bacteria was performed by strong agitation of Microbead tubes using a vortex adapter (MO BIO Laboratories) for 30 min at room temperature. This bacterial suspension was centrifuged at 10,000×g at room temperature for 5 min. Thirty μl of the supernatant was mixed in a well of a 96-well tray with 100 μl of a 1 ml solution made of 3 mg of purified cefotaxime sodium salt (Sigma-Aldrich, Saint-Quentin-Fallavier, France) in a pH 7.8 phenol red solution. […]. The phenol red solution was made by taking 2 ml of a concentrated pH 8 phenol solution (made from a mixture of phenol red 0.5% in distilled water) to which 16.6 ml of distilled water was added. The pH value was then adjusted to a 7.8 value by adding drops of a 1 N NaOH solution. Mixture of the phenol red solution and the enzymatic suspension being tested was incubated at 37° C. for 30 min. Similarly, culture extracts were analyzed in wells containing cefotaxime and tazobactam (4 mg/ml). Other concentrations of tazobactam and other ß-lactamase inhibitors were tested giving less clear results (data not shown). […] This definition of test positivity will be applied throughout the study.

S. enterica = assay: Susceptibility testing, MIC by Etest; format: cell-based, Salmonella enterica
Description: (§2) Susceptibility testing was performed by determining MIC values using the Etest® (AB bioMérieux; Solna, Sweden) on Mueller-Hinton agar plates at 37° C. and results were recorded according to US guidelines (CLSI), as updated in 2012 (2). The breakpoints for cefotaxime are susceptible (S)≤1 and resistant (R)≥4 μg/ml, and for ceftazidime S≤4 and R≥16 μg/ml.

CTX-M producers = assay: Susceptibility testing, MIC by Etest; format: cell-based, Enterobacteriaceae; settings: all CTX-M producers (n=147)
Description: as §2

E. coli = assay: ESBL NDP test using spiked blood cultures; format: biochemical, Escherichia coli; parameters: key: (+) and (−) referred to color change being, red to yellow or unchanged, respectively; (+) and (−) referred to color change being, red to yellow or unchanged, respectively
Description: as §1
Rapid detection of ESBL producers was attempted from spiked blood cultures which positivity was assessed using the BactAlert blood culture system (bioMérieux). […] This inoculum was reached after 24-48 h incubation in this BactAlert system. Strains were inoculated into blood culture system in presence of 10 ml of sterile blood. The panel of strains used for spiking blood cultures included either non-ESBL producers (n=24) or ESBL producers (n=64) (Table 4). Spiked blood cultures were made of 1×10^3 CFU of each strain and incubated 24 to 48 h before a positivity of the blood culture was detected by the BactAlert system. Then, 15 ml of spiked blood culture were transferred in a sterile tube and centrifuged at 1,500×g for 3 min to pellet the red blood cells. The supernatant was recovered and centrifuged for 15 min at 4,000×g to pellet the bacteria. The bacterial pellet was then resuspended in 500 μl of distilled water, transferred in 1.5 ml tube and thoroughly vortexed for 15 sec to lyse the remnant red blood cells and wash the bacterial pellet. After 5 min of centrifugation at 10,000×g, the bacterial pellet was resuspended in 150 μl of 20 mM Tris-HCl lysis buffer and distributed in beadtubes. The ESBL NDP test was then applied to this pellet as described above. Experiments were systematically performed in triplicate.

With CO/N=C(\C(=O)N[C@@H]1C(=O)N2C(C(=O)O)=C(COC(C)=O)CS[C@H]12)c1csc(N)n1 [CTX, cefotaxime] as the compound, how does the “ESBL NDP Test from: Colonies” value (S. marcescens; S. marcescens BG 1107 4243, Wild-type) read?
The value was “−”.

And the “ESBL NDP Test from: Colonies” value (S. marcescens; S. marcescens BN 1201 0816, Wild-type)?
The value was “−”.

What about the “Test (color change)” value (S. marcescens; S. marcescens Wild-type, chromosome-encoded cephalosporinase, n=2) of the same compound?
The value was “−”.

What about the MICs range (S. enterica; S. enterica CTX-M-1, n=1) of the same compound?
The MICs range was >16 µg/mL.

And the MICs range (S. enterica; S. enterica Wild-type, no resistance, n=1)?
Its MICs range is 0.05 µg/mL.

And the MIC (CTX-M producers)?
The MIC was > 8 µg/mL.

What about the “ESBL NDP Test from: Blood culture” value (E. coli; E. coli 09.11, TEM-52) of the same compound?
Its value is “+”.

And the “ESBL NDP Test from: Blood culture” value (E. coli; E. coli 09.123, TEM-133)?
The value was “+”.

And the “ESBL NDP Test from: Blood culture” value (E. coli; E. coli 09.124, TEM-52)?
Its value is “+”.

And the “ESBL NDP Test from: Blood culture” value (E. coli; E. coli 09.129, SHV-12)?
The value was “+”.

What about the “ESBL NDP Test from: Blood culture” value (E. coli; E. coli 09.173, SHV-12) of the same compound?
The value was “+”.

What about the “ESBL NDP Test from: Blood culture” value (E. coli; E. coli 09.187, SHV-2a) of the same compound?
Its value is “+”.

And the “ESBL NDP Test from: Blood culture” value (E. coli; E. coli 09.193, SHV-12)?
The value was “+”.

What about the “ESBL NDP Test from: Blood culture” value (E. coli; E. coli 09.207, SHV-2a) of the same compound?
The value was “+”.

And the “ESBL NDP Test from: Blood culture” value (E. coli; E. coli 09.225, TEM-52)?
The value was “+”.

What about the “ESBL NDP Test from: Blood culture” value (E. coli; E. coli 09.40, TEM-52) of the same compound?
Its value is “+”.

And the “ESBL NDP Test from: Blood culture” value (E. coli; E. coli 09.41, SHV-12)?
The value was “+”.

And the “ESBL NDP Test from: Blood culture” value (E. coli; E. coli 09.66, TEM-52)?
Its value is “+”.

And the “ESBL NDP Test from: Blood culture” value (E. coli; E. coli 09.73, TEM-52)?
Its value is “+”.

What about the “ESBL NDP Test from: Blood culture” value (E. coli; E. coli 09.79, SHV-12) of the same compound?
The value was “+”.

And the “ESBL NDP Test from: Blood culture” value (E. coli; E. coli 09.92, TEM-52)?
The value was “+”.

And the “ESBL NDP Test from: Blood culture” value (E. coli; E. coli 10.104, CTX-M-1)?
Its value is “+”.

What about the “ESBL NDP Test from: Blood culture” value (E. coli; E. coli 10.11, CTX-M-14) of the same compound?
Its value is “+”.

And the “ESBL NDP Test from: Blood culture” value (E. coli; E. coli 10.121, CTX-M-2)?
Its value is “+”.

And the “ESBL NDP Test from: Blood culture” value (E. coli; E. coli 10.124, CTX-M-14)?
Its value is “+”.

What about the “ESBL NDP Test from: Blood culture” value (E. coli; E. coli 10.130, CTX-M-3) of the same compound?
The value was “+”.

And the “ESBL NDP Test from: Blood culture” value (E. coli; E. coli 10.13, CTX-M-14)?
Its value is “+”.

And the “ESBL NDP Test from: Blood culture” value (E. coli; E. coli 10.132, CTX-M-2)?
The value was “+”.

What about the “ESBL NDP Test from: Blood culture” value (E. coli; E. coli 10.16, CTX-M-15) of the same compound?
Its value is “+”.

What about the “ESBL NDP Test from: Blood culture” value (E. coli; E. coli 10.178, CTX-M-27) of the same compound?
The value was “+”.

And the “ESBL NDP Test from: Blood culture” value (E. coli; E. coli 10.198, CTX-M-27)?
Its value is “+”.

And the “ESBL NDP Test from: Blood culture” value (E. coli; E. coli 10.204, CTX-M-27)?
Its value is “+”.

What about the “ESBL NDP Test from: Blood culture” value (E. coli; E. coli 10.207, CTX-M-27) of the same compound?
The value was “+”.

And the “ESBL NDP Test from: Blood culture” value (E. coli; E. coli 10.23, CTX-M-2)?
The value was “+”.

And the “ESBL NDP Test from: Blood culture” value (E. coli; E. coli 10.32, CTX-M-14)?
Its value is “+”.

And the “ESBL NDP Test from: Blood culture” value (E. coli; E. coli 10.33, CTX-M-15)?
The value was “+”.

What about the “ESBL NDP Test from: Blood culture” value (E. coli; E. coli 10.36, CTX-M-1) of the same compound?
Its value is “+”.

And the “ESBL NDP Test from: Blood culture” value (E. coli; E. coli 10.38, CTX-M-1)?
The value was “+”.

What about the “ESBL NDP Test from: Blood culture” value (E. coli; E. coli 10.43, CTX-M-15) of the same compound?
Its value is “+”.

And the “ESBL NDP Test from: Blood culture” value (E. coli; E. coli 10.46, CTX-M-14)?
Its value is “+”.

And the “ESBL NDP Test from: Blood culture” value (E. coli; E. coli 10.49, CTX-M-15)?
Its value is “+”.

And the “ESBL NDP Test from: Blood culture” value (E. coli; E. coli 10.53, CTX-M-9)?
The value was “+”.

What about the “ESBL NDP Test from: Blood culture” value (E. coli; E. coli 10.64, CTX-M-32) of the same compound?
The value was “+”.

And the “ESBL NDP Test from: Blood culture” value (E. coli; E. coli 10.73, CTX-M-27)?
Its value is “+”.

What about the “ESBL NDP Test from: Blood culture” value (E. coli; E. coli 10.74, CTX-M-15) of the same compound?
The value was “+”.

And the “ESBL NDP Test from: Blood culture” value (E. coli; E. coli 10.95, CTX-M-1)?
Its value is “+”.

What about the “ESBL NDP Test from: Blood culture” value (E. coli; E. coli (Belgium), ACC-1) of the same compound?
The value was “−”.

And the “ESBL NDP Test from: Blood culture” value (E. coli; E. coli A7R5, SHV-3)?
Its value is “+”.

And the “ESBL NDP Test from: Blood culture” value (E. coli; E. coli BG 1106 5698, Penicillinase)?
The value was “−”.

What about the “ESBL NDP Test from: Blood culture” value (E. coli; E. coli BG 1106 6252, Wild-type) of the same compound?
Its value is “−”.

And the “ESBL NDP Test from: Blood culture” value (E. coli; E. coli BG 1106 6367, Wild-type)?
The value was “−”.

What about the “ESBL NDP Test from: Blood culture” value (E. coli; E. coli BG 1106 7202, Penicillinase) of the same compound?
The value was “−”.

And the “ESBL NDP Test from: Blood culture” value (E. coli; E. coli BG 1107 8873, Wild-type)?
Its value is “−”.

And the “ESBL NDP Test from: Blood culture” value (E. coli; E. coli BG 1108 6157, Penicillinase)?
The value was “−”.

And the “ESBL NDP Test from: Blood culture” value (E. coli; E. coli C5O52, CTX-M-28)?
Its value is “+”.

And the “ESBL NDP Test from: Blood culture” value (E. coli; E. coli Ec13 SYD, CMY-2)?
The value was “+”.

What about the “ESBL NDP Test from: Blood culture” value (E. coli; E. coli GOU, DHA-1) of the same compound?
Its value is “−”.

What about the “ESBL NDP Test from: Blood culture” value (E. coli; E. coli LOU, ACC-1) of the same compound?
The value was “+”.

Reference: patent publication US10793892B2, “Method for detecting the presence of expanded spectrum β-lactamase-producing bacteria in a sample” (INSERM (INSTITUT NATIONAL DE LA SANTE ET DE LA RECHERCHE …, priority 2011, dated 2020)
